Assay results: ChEMBL document CHEMBL5696442, “Discovery of type II inhibitors of TGFβ-activated kinase 1 (TAK1) and mitogen-activated protein kinase kinase kinase kinase 2 (MAP4K2)” (J Med Chem, 2015)
Active and inactive are the calls of the source. No cut-off for these calls is given here.

Legend:
[1] = molecular target: Casein kinase I isoform gamma-1 (Homo sapiens) (UniProt Q9HCP0); test: Inhibition of CSNK1G1 (unknown origin) at 10 uM by Ambit Kinomescan binding assay
[2] = molecular target: Serine/threonine-protein kinase Nek7 (Homo sapiens) (UniProt Q8TDX7); test: Inhibition of NEK7 K1 labeling site in human Huh-7 cells at 10 uM by KiNativ Profiling analysis relative to control; format: cell-based
Chain of Serine/threonine-protein kinase Nek7 (Homo sapiens) (Q8TDX7 whole entry, looked up): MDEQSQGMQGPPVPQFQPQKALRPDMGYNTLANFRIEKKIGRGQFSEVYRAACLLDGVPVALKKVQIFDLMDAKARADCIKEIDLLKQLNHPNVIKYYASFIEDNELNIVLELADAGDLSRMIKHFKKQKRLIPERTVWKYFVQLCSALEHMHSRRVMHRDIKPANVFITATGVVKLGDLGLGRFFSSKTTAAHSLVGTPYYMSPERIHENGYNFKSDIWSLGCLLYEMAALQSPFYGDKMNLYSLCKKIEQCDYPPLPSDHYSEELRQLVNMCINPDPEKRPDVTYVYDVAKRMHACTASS

[3] = molecular target: Cyclin-dependent kinase 5 (Homo sapiens) (UniProt Q00535); test: Inhibition of CDK5 K2 labeling site harbouring DLKPQNLLINR in human Huh-7 cells at 10 uM by KiNativ Profiling analysis relative to control; format: cell-based
[4] = molecular target: Cyclin-dependent kinase 8/19 (Homo sapiens) (UniProt P49336+Q9BWU1); test: Inhibition of CDK8/11 K2 labeling site in human Huh-7 cells at 10 uM by KiNativ Profiling analysis relative to control; format: cell-based
Chain of Cyclin-dependent kinase 8/19 (Homo sapiens) (P49336 whole entry, looked up): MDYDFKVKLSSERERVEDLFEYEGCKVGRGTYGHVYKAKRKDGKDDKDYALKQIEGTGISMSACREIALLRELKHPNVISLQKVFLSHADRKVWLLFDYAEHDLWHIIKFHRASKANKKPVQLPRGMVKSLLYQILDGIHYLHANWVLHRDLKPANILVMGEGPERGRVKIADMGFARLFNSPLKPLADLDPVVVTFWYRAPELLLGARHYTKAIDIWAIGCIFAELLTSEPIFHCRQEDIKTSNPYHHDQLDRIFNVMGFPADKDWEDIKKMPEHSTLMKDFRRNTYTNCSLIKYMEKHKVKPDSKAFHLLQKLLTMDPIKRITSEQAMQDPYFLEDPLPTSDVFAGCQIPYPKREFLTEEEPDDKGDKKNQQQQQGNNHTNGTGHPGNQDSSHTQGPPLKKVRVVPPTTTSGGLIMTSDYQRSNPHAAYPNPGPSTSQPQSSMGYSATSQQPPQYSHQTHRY
Chain of Cyclin-dependent kinase 8/19 (Homo sapiens) (Q9BWU1 whole entry, looked up): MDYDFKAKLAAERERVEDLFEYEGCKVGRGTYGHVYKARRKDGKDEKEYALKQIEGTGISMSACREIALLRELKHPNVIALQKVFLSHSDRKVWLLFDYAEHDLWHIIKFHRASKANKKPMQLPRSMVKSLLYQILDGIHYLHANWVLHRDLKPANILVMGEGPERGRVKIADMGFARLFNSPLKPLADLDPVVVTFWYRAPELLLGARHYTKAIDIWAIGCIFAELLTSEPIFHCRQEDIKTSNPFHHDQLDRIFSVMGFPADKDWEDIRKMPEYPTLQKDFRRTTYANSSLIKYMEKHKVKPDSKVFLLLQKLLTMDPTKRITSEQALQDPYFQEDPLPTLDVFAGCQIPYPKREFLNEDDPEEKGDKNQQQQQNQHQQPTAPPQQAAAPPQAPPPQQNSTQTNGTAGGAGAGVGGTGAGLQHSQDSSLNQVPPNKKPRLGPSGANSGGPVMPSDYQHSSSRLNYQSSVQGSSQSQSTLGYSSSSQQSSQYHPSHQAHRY

[5] = molecular target: Serine/threonine-protein kinase 26 (Homo sapiens) (UniProt Q9P289); test: Inhibition of MST4 ATP labeling site in human Huh-7 cells at 10 uM by KiNativ Profiling analysis relative to control; format: cell-based
[6] = molecular target: Cyclin-dependent kinase 2 (Homo sapiens) (UniProt P24941); test: Inhibition of CDK2 K2 labeling site in human Huh-7 cells at 10 uM by KiNativ Profiling analysis relative to control; format: cell-based
[7] = molecular target: Serine/threonine-protein kinase PLK3 (Homo sapiens) (UniProt Q9H4B4); test: Inhibition of PLK3 (unknown origin) at 10 uM by Ambit Kinomescan binding assay
[8] = test system: Epidermal growth factor receptor (Homo sapiens), P00533 [UNDEFINED MUTATION]; test: Inhibition of EGFR L747-E749del/A750P mutant (unknown origin) at 10 uM by Ambit Kinomescan binding assay relative to control
[9] = molecular target: Vascular endothelial growth factor receptor 1 (Homo sapiens) (UniProt P17948); test: Inhibition of FLT1 (unknown origin) at 10 uM by Ambit Kinomescan binding assay relative to control; values are per cent of control
[10] = molecular target: Non-receptor tyrosine-protein kinase TYK2 (Homo sapiens) (UniProt P29597); test: Inhibition of TYK2 JH1 catalytic domain (unknown origin) at 10 uM by Ambit Kinomescan binding assay relative to control; values are per cent of control
Chain of Non-receptor tyrosine-protein kinase TYK2 (Homo sapiens) (P29597 whole entry, the tested form may be a part): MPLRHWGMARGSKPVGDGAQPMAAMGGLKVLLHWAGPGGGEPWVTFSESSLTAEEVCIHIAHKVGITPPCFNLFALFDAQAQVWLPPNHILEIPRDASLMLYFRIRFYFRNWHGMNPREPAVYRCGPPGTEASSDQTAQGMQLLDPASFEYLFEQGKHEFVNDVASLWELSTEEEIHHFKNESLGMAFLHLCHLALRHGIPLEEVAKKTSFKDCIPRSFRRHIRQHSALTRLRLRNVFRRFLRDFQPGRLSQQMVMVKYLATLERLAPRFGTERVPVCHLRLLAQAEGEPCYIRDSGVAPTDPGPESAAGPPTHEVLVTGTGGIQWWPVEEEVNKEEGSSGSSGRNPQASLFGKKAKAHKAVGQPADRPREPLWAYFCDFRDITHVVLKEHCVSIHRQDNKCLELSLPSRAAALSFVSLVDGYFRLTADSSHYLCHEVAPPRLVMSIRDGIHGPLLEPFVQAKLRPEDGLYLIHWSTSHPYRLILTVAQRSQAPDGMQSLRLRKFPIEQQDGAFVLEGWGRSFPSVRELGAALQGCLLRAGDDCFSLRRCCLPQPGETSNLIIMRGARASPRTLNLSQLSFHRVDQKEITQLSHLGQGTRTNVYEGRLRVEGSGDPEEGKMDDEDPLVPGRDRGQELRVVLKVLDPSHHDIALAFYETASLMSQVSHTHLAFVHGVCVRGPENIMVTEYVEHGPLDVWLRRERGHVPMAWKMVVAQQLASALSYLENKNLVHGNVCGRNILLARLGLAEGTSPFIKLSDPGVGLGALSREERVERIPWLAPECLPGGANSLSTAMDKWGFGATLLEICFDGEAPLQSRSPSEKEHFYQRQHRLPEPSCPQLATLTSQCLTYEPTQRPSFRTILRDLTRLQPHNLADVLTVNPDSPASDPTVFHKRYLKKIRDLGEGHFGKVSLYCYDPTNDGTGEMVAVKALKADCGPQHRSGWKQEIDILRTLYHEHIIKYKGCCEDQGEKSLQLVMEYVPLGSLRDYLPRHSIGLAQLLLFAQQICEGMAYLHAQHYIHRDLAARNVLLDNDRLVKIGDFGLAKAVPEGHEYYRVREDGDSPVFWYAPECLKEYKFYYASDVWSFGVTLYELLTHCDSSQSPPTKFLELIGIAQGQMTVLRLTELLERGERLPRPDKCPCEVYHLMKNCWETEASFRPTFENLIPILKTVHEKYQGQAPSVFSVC

[11] = molecular target: Cyclin-dependent kinase 13 (Homo sapiens) (UniProt Q14004); test: Inhibition of CHED Lys2 labeling site harbouring DIKCSNILLNNR in human Huh-7 cell lysate at 1 uM by KiNativ Profiling analysis relative to control; format: subcellular
Chain of Cyclin-dependent kinase 13 (Homo sapiens) (Q14004 whole entry, looked up): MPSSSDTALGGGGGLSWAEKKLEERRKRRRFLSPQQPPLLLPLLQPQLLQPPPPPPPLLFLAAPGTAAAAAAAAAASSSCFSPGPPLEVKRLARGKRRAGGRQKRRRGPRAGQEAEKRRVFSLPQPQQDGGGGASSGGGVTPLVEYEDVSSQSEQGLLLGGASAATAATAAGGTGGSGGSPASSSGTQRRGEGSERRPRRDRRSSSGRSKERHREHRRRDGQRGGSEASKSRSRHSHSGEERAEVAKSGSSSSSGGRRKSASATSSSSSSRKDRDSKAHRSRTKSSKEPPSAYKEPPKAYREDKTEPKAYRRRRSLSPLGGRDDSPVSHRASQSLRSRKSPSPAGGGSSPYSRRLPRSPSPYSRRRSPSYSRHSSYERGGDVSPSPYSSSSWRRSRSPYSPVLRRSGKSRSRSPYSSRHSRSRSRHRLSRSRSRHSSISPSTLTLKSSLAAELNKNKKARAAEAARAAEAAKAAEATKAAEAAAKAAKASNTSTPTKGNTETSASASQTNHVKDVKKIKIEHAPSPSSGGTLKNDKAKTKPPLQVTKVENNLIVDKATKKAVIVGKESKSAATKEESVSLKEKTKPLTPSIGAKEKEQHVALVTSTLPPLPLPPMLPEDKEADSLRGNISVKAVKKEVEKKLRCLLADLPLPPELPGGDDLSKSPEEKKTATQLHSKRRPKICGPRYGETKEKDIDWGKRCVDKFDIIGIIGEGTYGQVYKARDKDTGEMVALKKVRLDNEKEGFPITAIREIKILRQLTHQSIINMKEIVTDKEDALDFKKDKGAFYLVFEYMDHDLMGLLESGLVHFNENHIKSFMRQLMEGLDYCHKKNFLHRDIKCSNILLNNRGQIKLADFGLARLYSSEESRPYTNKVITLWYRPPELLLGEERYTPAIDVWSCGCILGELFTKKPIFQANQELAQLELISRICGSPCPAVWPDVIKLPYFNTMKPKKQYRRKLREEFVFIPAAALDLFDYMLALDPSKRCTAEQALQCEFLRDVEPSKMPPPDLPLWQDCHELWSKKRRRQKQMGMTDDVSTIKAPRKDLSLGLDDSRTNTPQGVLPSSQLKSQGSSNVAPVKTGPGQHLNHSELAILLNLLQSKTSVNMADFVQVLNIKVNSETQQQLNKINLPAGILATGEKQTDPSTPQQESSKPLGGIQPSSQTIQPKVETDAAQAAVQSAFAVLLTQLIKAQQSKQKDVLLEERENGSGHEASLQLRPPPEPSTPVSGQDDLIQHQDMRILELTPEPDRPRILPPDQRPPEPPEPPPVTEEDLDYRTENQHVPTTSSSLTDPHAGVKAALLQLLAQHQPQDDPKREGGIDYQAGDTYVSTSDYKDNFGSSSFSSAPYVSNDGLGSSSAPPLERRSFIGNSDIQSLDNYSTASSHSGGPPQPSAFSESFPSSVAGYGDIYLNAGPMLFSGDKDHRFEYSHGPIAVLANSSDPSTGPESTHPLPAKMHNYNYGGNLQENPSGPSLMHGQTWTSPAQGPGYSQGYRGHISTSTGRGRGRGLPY

[12] = molecular target: T1, Serine/threonine-protein kinase tousled-like 1 (Homo sapiens) (UniProt Q9UKI8); test: Inhibition of TLK1 Lys2 labeling site in human Huh-7 cell lysate at 1 uM by KiNativ Profiling analysis relative to control; format: subcellular
T1 sequence (whole entry): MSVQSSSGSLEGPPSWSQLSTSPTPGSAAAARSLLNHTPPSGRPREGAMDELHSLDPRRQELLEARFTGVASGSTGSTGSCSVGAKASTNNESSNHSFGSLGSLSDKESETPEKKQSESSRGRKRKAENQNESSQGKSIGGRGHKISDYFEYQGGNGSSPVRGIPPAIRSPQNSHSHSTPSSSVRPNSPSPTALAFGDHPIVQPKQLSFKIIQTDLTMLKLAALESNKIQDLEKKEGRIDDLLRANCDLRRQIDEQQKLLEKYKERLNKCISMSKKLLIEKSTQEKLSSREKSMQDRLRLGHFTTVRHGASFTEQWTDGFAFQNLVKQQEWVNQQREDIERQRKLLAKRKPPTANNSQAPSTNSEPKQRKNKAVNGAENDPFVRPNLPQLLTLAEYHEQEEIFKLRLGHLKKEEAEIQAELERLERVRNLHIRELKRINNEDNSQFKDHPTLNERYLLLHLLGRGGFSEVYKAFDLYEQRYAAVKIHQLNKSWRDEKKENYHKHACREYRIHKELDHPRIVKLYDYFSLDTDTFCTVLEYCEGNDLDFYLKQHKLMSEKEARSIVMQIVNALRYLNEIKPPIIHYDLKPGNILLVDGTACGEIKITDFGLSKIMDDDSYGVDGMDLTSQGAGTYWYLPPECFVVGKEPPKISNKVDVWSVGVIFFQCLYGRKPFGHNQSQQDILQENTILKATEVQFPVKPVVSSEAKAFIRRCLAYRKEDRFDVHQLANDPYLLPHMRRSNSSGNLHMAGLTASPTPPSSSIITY

[13] = molecular target: Ribosomal protein S6 kinase beta-2 (Homo sapiens) (UniProt Q9UBS0); test: Inhibition of p70S6Kb ATP labeling site in human Huh-7 cell lysate at 1 uM by KiNativ Profiling analysis relative to control; format: subcellular
[14] = molecular target: Tyrosine-protein kinase Fyn (Homo sapiens) (UniProt P06241); test: Inhibition of FYN ACT labeling site in human Huh-7 cell lysate at 1 uM by KiNativ Profiling analysis relative to control; format: subcellular
Chain of Tyrosine-protein kinase Fyn (Homo sapiens) (P06241 2-537 limits assumed): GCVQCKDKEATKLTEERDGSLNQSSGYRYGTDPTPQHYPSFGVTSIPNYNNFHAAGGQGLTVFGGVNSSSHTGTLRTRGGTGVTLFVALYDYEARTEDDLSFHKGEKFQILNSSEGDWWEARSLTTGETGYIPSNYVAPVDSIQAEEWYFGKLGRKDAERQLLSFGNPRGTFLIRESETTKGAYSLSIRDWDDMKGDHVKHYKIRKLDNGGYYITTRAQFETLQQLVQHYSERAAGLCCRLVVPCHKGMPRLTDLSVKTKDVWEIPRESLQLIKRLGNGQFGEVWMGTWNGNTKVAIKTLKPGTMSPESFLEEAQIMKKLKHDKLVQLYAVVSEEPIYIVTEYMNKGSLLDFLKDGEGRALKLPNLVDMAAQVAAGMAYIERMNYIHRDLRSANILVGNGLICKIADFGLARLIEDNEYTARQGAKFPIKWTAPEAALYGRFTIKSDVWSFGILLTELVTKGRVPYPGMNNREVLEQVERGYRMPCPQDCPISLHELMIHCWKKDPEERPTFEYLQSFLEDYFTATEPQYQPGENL

[15] = molecular target: T2, Mitogen-activated protein kinase kinase kinase 2 (Homo sapiens) (UniProt Q9Y2U5); test: Inhibition of MAP3K2 Lys1 labeling site in human Huh-7 cell lysate at 1 uM by KiNativ Profiling analysis relative to control; format: subcellular
T2 sequence (whole entry): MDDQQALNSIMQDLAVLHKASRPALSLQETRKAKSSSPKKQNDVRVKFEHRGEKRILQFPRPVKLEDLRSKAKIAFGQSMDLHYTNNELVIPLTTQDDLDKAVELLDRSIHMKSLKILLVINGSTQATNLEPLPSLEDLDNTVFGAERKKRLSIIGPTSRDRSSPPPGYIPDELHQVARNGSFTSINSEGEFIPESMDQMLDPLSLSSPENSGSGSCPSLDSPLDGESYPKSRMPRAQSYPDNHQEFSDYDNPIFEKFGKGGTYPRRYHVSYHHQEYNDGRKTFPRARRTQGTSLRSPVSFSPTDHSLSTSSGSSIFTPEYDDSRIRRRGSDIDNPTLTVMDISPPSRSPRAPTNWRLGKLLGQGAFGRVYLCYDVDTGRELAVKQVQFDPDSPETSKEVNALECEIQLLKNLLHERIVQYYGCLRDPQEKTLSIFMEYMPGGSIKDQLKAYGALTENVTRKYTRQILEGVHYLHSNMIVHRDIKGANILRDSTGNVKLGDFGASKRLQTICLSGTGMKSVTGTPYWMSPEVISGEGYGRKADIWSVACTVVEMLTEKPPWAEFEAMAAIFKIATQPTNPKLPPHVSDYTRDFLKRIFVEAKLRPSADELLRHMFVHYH

[16] = molecular target: Serine/threonine-protein kinase Nek5 (Homo sapiens) (UniProt Q6P3R8); test: Inhibition of NEK5 (unknown origin) at 1 uM by Ambit Kinomescan binding assay relative to control; values are per cent of control
[17] = molecular target: Calcium/calmodulin-dependent protein kinase type IV (Homo sapiens) (UniProt Q16566); test: Inhibition of CAMK4 (unknown origin) at 1 uM by Ambit Kinomescan binding assay relative to control; values are per cent of control

Chain of Casein kinase I isoform gamma-1 (Homo sapiens) (Q9HCP0 whole entry, looked up, canonical isoform): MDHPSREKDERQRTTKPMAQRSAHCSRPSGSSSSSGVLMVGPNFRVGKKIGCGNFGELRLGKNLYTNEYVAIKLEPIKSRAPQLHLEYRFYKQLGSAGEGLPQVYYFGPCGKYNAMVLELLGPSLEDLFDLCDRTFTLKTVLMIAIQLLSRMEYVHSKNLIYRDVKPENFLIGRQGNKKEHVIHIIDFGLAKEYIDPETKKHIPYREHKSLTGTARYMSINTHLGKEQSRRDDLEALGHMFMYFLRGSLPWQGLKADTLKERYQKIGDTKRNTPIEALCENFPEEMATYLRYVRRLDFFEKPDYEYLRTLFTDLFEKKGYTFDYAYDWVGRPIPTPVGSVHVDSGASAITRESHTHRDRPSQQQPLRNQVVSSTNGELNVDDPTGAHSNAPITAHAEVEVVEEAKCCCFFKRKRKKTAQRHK

CCN1CCN(Cc2ccc(NC(=O)c3ccc(C)c(Oc4ccnc5[nH]ccc45)c3)cc2C(F)(F)F)CC1
inhibition [1]: inactive
inhibition [2]: -8.8%
inhibition [3]: -6.3%
inhibition [4]: 18.3%
inhibition [5]: 25.3%
inhibition [6]: 16.2%
inhibition [7]: inactive
inhibition [8]: 1.5%
percent of control [9]: 1.6%
residual activity [10]: 0%

CNc1cc(Oc2cc(C(=O)Nc3cc(N4CCN(C)CC4)cc(C(F)(F)F)c3)ccc2C)ncn1
inhibition [11]: 14%
inhibition [12]: 1%
inhibition [13]: 2.8%
inhibition [14]: 22%
inhibition [15]: 11%

CCN1CCN(Cc2ccc(NC(=O)c3ccc(C)c(/C=C/c4cnc5[nH]ccc5c4OC)c3)cc2C(F)(F)F)CC1
residual activity [16]: 47%
residual activity [17]: 100%
